pIC50: −log10 of the molar value. Where “and” joins values, the source holds several entries; their conditions need not be identical. Equal entries are not always repeated.
Columns and labels:
[1] = target: T1, angiotensin II receptor, site 2 (rat adrenal membranes) (Rattus norvegicus, UniProt P35351); assay: Receptor Assay using Rat Adrenal Gland Preparation (125I-Angiotensin II binding); settings: at site 2, 37° C., 90 minutes
T1 construct: Adrenal membranes for the receptor assay were readied first by placing cleaned, whole adrenal glands in microcentrifuge tubes; from tissue; host or cells: rat adrenal gland membranes
T1 sequence (P35351 1-363): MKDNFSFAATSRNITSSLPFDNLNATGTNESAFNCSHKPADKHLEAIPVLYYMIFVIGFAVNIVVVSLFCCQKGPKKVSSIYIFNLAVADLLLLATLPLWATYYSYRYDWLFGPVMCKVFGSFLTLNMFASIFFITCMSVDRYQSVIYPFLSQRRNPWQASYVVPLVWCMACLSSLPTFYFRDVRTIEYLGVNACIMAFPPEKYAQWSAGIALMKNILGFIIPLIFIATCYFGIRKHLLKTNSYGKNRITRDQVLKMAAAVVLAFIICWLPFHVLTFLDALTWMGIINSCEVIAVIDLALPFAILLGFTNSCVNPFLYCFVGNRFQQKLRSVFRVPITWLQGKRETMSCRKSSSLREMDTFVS
Description: Angiotensin II (AII) is a powerful arterial vasoconstrictor, and it exerts its action by interacting with specific receptors present on cell membranes. The compounds produced by Cytospora sp. are competitive antagonists of AII at receptor sites. The usefulness of compounds as AII antagonists may be determined from the results of certain receptor binding assays. The initial assay is that using rat adrenal glands and the results of this assay are described herein.
Adrenal membranes for the receptor assay were readied first by placing cleaned, whole adrenal glands in microcentrifuge tubes (20 glands per tube), and freezing and storing under liquid nitrogen. As needed, a microcentrifuge tube of adrenal glands was homogenized in 20 ml 50 mM tris (hydroxymethyl)aminomethane hydrochloride (Tris-HCl) pH 7.7 and centrifuged at 20,000 rpm for 15 minutes at 4° C. […]
For the assay, the adrenal membrane preparation in one vial was resuspended in 30 ml of 100 mM Tris-HCl pH 7.4 with 5 mM MgCl2, 0.2% bovine serum albumin and 0.2 mg/ml bacitracin. […] The vials are counted with a gamma counter for one minute and percent inhibition determined from counts/min (CPM) as follows: [formula] The IC50 is determined by plotting percent inhibition v. concentration of compound tested.

[2] = tested on: male Sprague-Dawley rats; settings: rat; known activity; cited from earlier work
[3] = tested on: rats; settings: rat; known activity; cited from earlier work

CCCCCC1=C(C=O)C2OC(C)(C)C(O)CC23OC3C1=O (stereo not drawn) [Compound A]
pIC50 [1]: 5.49 to 5.79 and 5.70 to 6.00

CN1C(=O)CN=C(c2ccccc2)c2cc(Cl)ccc21 [Diazepam]
activity in conditioned emotional response assay [2]: active in this assay

CNC(=O)Oc1ccc2c(c1)[C@]1(C)CCN(C)[C@@H]1N2C [physostigmine]
activity in passive avoidance assay [3]: known to be active
